Reference: publication PMC7217877, “N-AS-triggered SPMs are direct regulators of microglia in a model of Alzheimer’s disease” (Nature Communications, 2020)
Several values for one entry are separate records, joined by “and”; a condition that tells them apart may be missing. Identical values can stand only once.

Columns and labels:
COX2 = assay: SphK1-mediated COX2 acetylation with [14C] acetyl-CoA (ATP competition, SphK1 mutants; Supplementary Fig 1h,i); type: biochemical, human; settings: COX2 +
Text: Single point mutations in SphK1 (R56A, R57A, R24A, R185A, D178A, and F192A) and COX2 (S565A, N181A, T564A, and S567A) were generated using the In-Fusion Cloning Kits (Clontech) and ORF cDNA expression plasmids of human SphK1 and COX2 gene (Sino Biological Inc, HG15679-NH and HG12036-NH), according to the manufacturer’s instructions. The forward and reverse primers described in Supplementary Table 4. The SphK1 WT, SphK1 mutants, COX2 WT, and COX2 mutant plasmids were transformed in the One shot TOP 10 competent cell (Invitrogen). The bacteria were grown in Luria-Bertani (LB, Invitrogen) plates supplemented with 50 μg ml^−1 kanamycin (Sigma-Aldrich) at 37 °C. The bacterial cell pellets were resuspended in lysis buffer containing 20 mM sodium phosphate (GE Healthcare), 500 mM NaCl (GE Healthcare), 20 mM imidazole (pH 7.4) (GE Healthcare), 0.2 mg ml^−1 lysozyme (Sigma-Aldrich), 20 μg ml^−1 DNase I (Roche), 1 mM MgCl2 (Sigma-Aldrich), and 1 mM PMSF (Sigma-Aldrich) before being lysed by sonication and clarified by centrifugation at 15,493×g for 10 min. Proteins were purified from the soluble fraction using His-Spin Trap columns (GE Healthcare) and the binding and acetylation assays were performed.
Acetylation assays were performed according to previously described procedures with minor modifications. […] N-AS (2 μCi, ARC UK Ltd, ARC-1024) at 37 °C for 2 h. [^14C] aspirin (2 μCi, ARC UK Ltd, ARC-0473) was conducted as the positive control. The reactions were terminated by placing the reaction tubes in ice for 5 min. To evaluate in vivo neuronal and microglial COX2 acetylation, 10 μCi [^14C] N-AS was orally administrated to 9-months-old WT and APP/PS1 mice. After 1 h, neuron and microglia were isolated and sonicated in culture media. To immunoprecipitate acetylated COX2, the sample was incubated with COX2 antibody (Abcam, ab15191) at 4 °C for 24 h and precipitated by adding 50 μl of protein-A sepharose (GE Healthcare). Acetylated COX2 proteins bound to the beads were analyzed using a Tri-Carb 3110TR liquid scintillation counter (Perkin-Elmer).

APP/PS1 mice = assay: Caspase-3+ cells, apoptosis (Supplementary Fig 7o); type: in vivo, mouse
Experimental: Thioflavin S (Sigma-Aldrich) staining was carried out according to previously described procedures. We used 6E10 (mouse, 1:100, Signet, SIG39300), anti-20G10 (mouse, 1:1000, provided by D. R. Howlett, GlaxoSmithKline, Harlow, Essex, UK) for Aβ42, anti-G30 (rabbit, 1:1000, provided by D. R. Howlett) for Aβ40, SMA (mouse, 1:400, Sigma-Aldrich, A2547), AT8 (mouse, 1:500, Thermo Fisher Scientific, MN1020), Caspase-3 (mouse, 1:200, Novus Biologicals, NB100-56708), ac-S565 (rabbit, 1:100), COX2 (mouse, 1:250, Thermo Fisher Scientific, 35-8200), Iba1 (rabbit, 1:500, Wako, 019-19941 and goat, Abcam, ab5076), NeuN (mouse, 1:500, Millipore, MAB177), GFAP (rabbit, 1:500, Dako, N1506 and chicken, 1:500, Abcam, ab4674), and Lamp1 (mouse, 1:200, Abcam, ab24170). The sections were analyzed with a laser-scanning confocal microscope (FV3000; Olympus) or with a BX51 microscope (Olympus). MetaMorph software (Molecular Devices) was used to quantification. Three-dimensional reconstruction of microglia was recorded and analyzed using IMARIS software (Bitplane)[11]. For the analysis of age-dependent microglial COX2^+ CX3CR1^+ cells in WT and APP/PS1 mice, COX2 (rabbit, 1:100, Abcam, ab15191) and CX3CR1 (mouse, 1:100, BioLegend, 149008) antibody were used and the images were acquired on Alexa 488 and APC Channel with performed using Operetta CLS and Analysis Software 4.5 (Perkin-Elmer). […]

Row | SMILES | COX2 acetylation with C14 Acetyl CoA (sFig 1i) (COX2; Acetyl transfer: SphK1, Sph, ATP, listed as C14 Acetyl CoA) | COX2 acetylation with C14 Acetyl CoA (sFig 1i) (COX2; Acetyl transfer: SphK1, Sph, listed as C14 Acetyl CoA) | COX2 acetylation with C14 Acetyl CoA (sFig 1i) (COX2; Acetyl transfer: SphK1, listed as C14 Acetyl CoA) | COX2 acetylation with C14 Acetyl CoA (sFig 1i) (COX2; Acetyl transfer: SphK1 R24A, Sph, listed as C14 Acetyl CoA) | COX2 acetylation with C14 Acetyl CoA (sFig 1i) (COX2; Acetyl transfer: SphK1 R56A, Sph, listed as C14 Acetyl CoA) | COX2 acetylation with C14 Acetyl CoA (sFig 1i) (COX2; Acetyl transfer: SphK1 R57A, Sph, listed as C14 Acetyl CoA) | COX2 acetylation with C14 Acetyl CoA (sFig 1i) (COX2; Acetyl transfer: SphK1 R185A, Sph, listed as C14 Acetyl CoA) | COX2 acetylation with C14 Acetyl CoA (sFig 1i) (COX2; C14 Acetyl CoA +, Acetyl transfer -) | Caspase-3+ cells (APP/PS1 mice; APP/PS1 + N-AS, sFig 7o) | apoptosis (Caspase-3+ cells) (APP/PS1 mice; N-AS vs vehicle APP/PS1)
1 | CC(=O)SCCNC(=O)CCNC(=O)[C@H](O)C(C)(C)COP(=O)(O)OP(=O)(O)OC[C@H]1O[C@@H](n2cnc3c(N)ncnc32)[C@H](O)[C@@H]1OP(=O)(O)O [Acetyl-CoA, acetyl-CoA] | 10456 and 10500 and 10758 and 10726 | 19270 and 24354 and 19216 and 24474 and 19218 and 24370 | 11878 and 13132 and 13238 and 13414 and 13230 | 12532 and 11618 and 11452 and 12034 and 12526 and 12014 | 9992 and 10060 and 9758 and 9780 and 9270 and 10086 | 14380 and 14360 and 14338 and 14310 and 14334 and 14376 | 10222 and 9944 and 10214 and 10110 and 9988 | 2366 and 2614 and 2946 and 2710 and 2880 and 2156 |  | 
2 | CCCCCCCCCCCCC/C=C/[C@@H](O)[C@H](CO)NC(C)=O [N-AS, N-((2S,3R,E)-1,3-Dihydroxyoctadec-4-en-2-yl)acetamide] |  |  |  |  |  |  |  |  | 0.7653 and 0.8763 and 0.6283 and 0.6646 and 0.8616 and 0.8325 | apoptosis was not changed
